Test results reported in US20230248665A1, “COMPOSITION COMPRISING DIMETHYLCHALCONE DERIVATIVE FOR PREVENTION OR TREATMENT OF METABOLIC DISEASE” (SEOUL NATIONAL UNIVERSITY R & DB FOUNDATION, priority 2020, published 2023).

How the values were obtained:
Format in all cases: cell-based
AMPK = AMPK activity, western blotting of phosphorylated AMPK in C2C12 myotubes; conditions: FIG. 2
From the text: AMP-activated protein kinase (AMPK) is a member of serine/threonine kinases, and is an enzyme known as an energy sensor which senses the intracellular energy state. Moreover, the activation of AMPK is known to show the effect of increasing glucose transport and promoting fatty acid oxidation in skeletal muscle, and to […] the synthesis of cholesterol and triglycerides, decrease lipogenesis, and increase fatty acid oxidation, and ketogenesis, and the like in the liver. Further, the activation of AMPK is known to reduce adipogenesis in adipose tissue and increase insulin secretion in pancreatic beta cells, thereby being able to be applied to the treatment of various metabolic diseases. Therefore, western blotting was performed in order to confirm the effect of the DMC derivatives of Example 1 on AMPK activity. More specifically, the C2C12 myoblasts were primarily cultured in DMEM supplemented with 10% fetal bovine serum, and then cultured in DMEM supplemented with 2% horse serum for 5 days to differentiate into myotubes. Then, the differentiated myotubes were treated with 10 µM DMC derivative and cultured for 24 hours, and then cells were collected, and disrupted using an ultrasonic disperser to obtain proteins. Next, western blotting was performed using a pAMPK antibody (Cell Signaling Technology) and an AMPK antibody (Cell Signaling Technology) to measure the amount of phosphorylated AMPK. 1 mM AICAR was used as a positive control, and 20 µg of protein was used for each sample in western blotting.

[1] = tested on: rat aortic smooth muscle cells; experiment: PDGF-induced migration of vascular smooth muscle cells; conditions: 1 µM with 10 ng/mL PDGF; FIG. 4
Procedure: Proliferation and migration of vascular smooth muscle cells are known to be essential steps in the progression of vascular diseases such as restenosis and arteriosclerosis. Therefore, in order to confirm the effect of the DMC derivatives of Example 1 on the migration of rat aortic smooth muscle cells, smooth muscle cells were treated with 10 ng/mL platelet-derived growth factor (PDGF) and 1 µM DMC derivative and cultured. Then, the degree of cell migration was measured.

[2] = tested on: human kidney proximal tubule epithelial cell (HK-2) cell line; experiment: Antioxidant effect, intracellular reactive oxygen species (DCF-DA) in HK-2 kidney cells after H2O2; conditions: 1 µM for 18 hours, then 500 µM H2O2 for 6 hours, FIG. 6
Procedure: First, the antioxidant effect was checked using kidney cells. More specifically, a human kidney proximal tubule epithelial cell (HK-2) cell line was treated with 1 µM DMC derivative and cultured for 18 hours. Then, 500 µM H2O2 was added to the culture medium and the culture medium was incubated for 6 hours. Thereafter, the amount of intracellular reactive oxygen species (iROS) was measured using dichlorohydro-fluorescein diacetate (DCF-DA).

Compound | activity of AMPK (phosphorylated AMPK) (AMPK; positive control 1 mM AICAR) | migration of vascular smooth muscle cells [1] | amount of intracellular reactive oxygen species (ROS) [2] | activity of AMPK (phosphorylated AMPK) (AMPK; 10 µM, 24 hours)
NC(=O)c1ncn([C@@H]2O[C@H](CO)[C@@H](O)[C@H]2O)c1N [AICAR, reference compound] | increased the activity of AMPK | – | – | –
COc1c(C)c(O)c(C)c(O)c1C(=O)/C=C/c1ccc(C(C)C)cc1 [Chemical Formula 4, 1-(2′,4′-dihydroxy-6′-methoxy-3′,5′-dimethylphenyl)-3-(4-isopropylphenyl)-2-propen-1-one] | – | similarly or more effectively suppressed cell migration by PDGF than AICAR and Rosi, which were used as positive controls, and DMC | effectively reduced ROS | –
COc1ccc(/C=C/C(=O)c2c(O)c(C)c(O)c(C)c2OC)cc1 [Chemical Formula 5, 1-(2′,4′-dihydroxy-6′-methoxy-3′,5′-dimethylphenyl)-3-(4-methoxyphenyl)-2-propen-1-one] | – | – | – | increased the activity of AMPK similarly to or more effectively than the positive controls
COc1c(C)c(OC)c(C(=O)/C=C/c2ccc(F)cc2)c(OC)c1C [Chemical Formula 16, 1-(3′,5′-dimethyl-2′,4′,6′-trimethoxyphenyl)-3-(4-fluorophenyl)-2-propen-1-one] | – | similarly or more effectively suppressed cell migration by PDGF than AICAR and Rosi, which were used as positive controls, and DMC | effectively reduced ROS | –
COc1c(C)c(OC)c(C(=O)/C=C/c2ccccc2)c(OC)c1C [Chemical Formula 17, 1-(3′,5′-dimethyl-2′,4′,6′-trimethoxyphenyl)-3-phenyl-2-propen-1-one] | – | similarly or more effectively suppressed cell migration by PDGF than AICAR and Rosi, which were used as positive controls, and DMC | effectively reduced ROS | –
COc1c(C)c(OC)c(C(=O)/C=C/c2ccc(C)cc2)c(OC)c1C [Chemical Formula 18, 1-(3′,5′-dimethyl-2′,4′,6′-trimethoxyphenyl)-3-(4-tolyl)-2-propen-1-one] | – | similarly or more effectively suppressed cell migration by PDGF than AICAR and Rosi, which were used as positive controls, and DMC | – | –
COc1c(C)c(OC)c(C(=O)/C=C/c2ccc(C(C)C)cc2)c(OC)c1C [Chemical Formula 19, 1-(3′,5′-dimethyl-2′,4′,6′-trimethoxyphenyl)-3-(4-isopropylphenyl)-2-propen-1-one] | – | similarly or more effectively suppressed cell migration by PDGF than AICAR and Rosi, which were used as positive controls, and DMC | – | increased the activity of AMPK similarly to or more effectively than the positive controls
COc1ccc(/C=C/C(=O)c2c(OC)c(C)c(OC)c(C)c2OC)cc1 [Chemical Formula 21, 1-(3′,5′-dimethyl-2′,4′,6′-trimethoxyphenyl)-3-(4-methoxyphenyl)-2-propen-1-one] | – | similarly or more effectively suppressed cell migration by PDGF than AICAR and Rosi, which were used as positive controls, and DMC | – | increased the activity of AMPK similarly to or more effectively than the positive controls
COc1c(C)c(OC)c(C(=O)/C=C/c2ccc(O)cc2)c(OC)c1C [Chemical Formula 22, 1-(3′,5′-dimethyl-2′,4′,6′-trimethoxyphenyl)-3-(4-hydroxyphenyl)-2-propen-1-one] | – | similarly or more effectively suppressed cell migration by PDGF than AICAR and Rosi, which were used as positive controls, and DMC | – | increased the activity of AMPK similarly to or more effectively than the positive controls
COCOc1c(C)c(O)c(C(=O)/C=C/c2ccc(C)cc2)c(OC)c1C [Chemical Formula 26, 1-(2′-hydroxy-4′-(methoxymethoxy)-6′-methoxy-3′,5′-dimethylphenyl)-3-(4-tolyl)-2-propen-1-one] | – | similarly or more effectively suppressed cell migration by PDGF than AICAR and Rosi, which were used as positive controls, and DMC | – | increased the activity of AMPK similarly to or more effectively than the positive controls
COCOc1c(C)c(O)c(C(=O)/C=C/c2ccc(C(C)C)cc2)c(OC)c1C [Chemical Formula 27, 1-(2′-hydroxy-4′-(methoxymethoxy)-6′-methoxy-3′,5′-dimethylphenyl)-3-(4-isopropylphenyl)-2-propen-1-one] | – | similarly or more effectively suppressed cell migration by PDGF than AICAR and Rosi, which were used as positive controls, and DMC | – | increased the activity of AMPK similarly to or more effectively than the positive controls
COCOc1ccc(/C=C/C(=O)c2c(O)c(C)c(OCOC)c(C)c2OC)cc1 [Chemical Formula 28, 1-(2′-hydroxy-4′-(methoxymethoxy)-6′-methoxy-3′,5′-dimethylphenyl)-3-(4-methoxymethoxyphenyl)-2-propen-1-one] | – | similarly or more effectively suppressed cell migration by PDGF than AICAR and Rosi, which were used as positive controls, and DMC | – | increased the activity of AMPK similarly to or more effectively than the positive controls
COCOc1c(C)c(O)c(C(=O)/C=C/c2ccc(OC)cc2)c(OC)c1C [Chemical Formula 29, 1-(2′-hydroxy-4′-(methoxymethoxy)-6′-methoxy-3′,5′-dimethylphenyl)-3-(4-methoxyphenyl)-2-propen-1-one] | – | similarly or more effectively suppressed cell migration by PDGF than AICAR and Rosi, which were used as positive controls, and DMC | – | increased the activity of AMPK similarly to or more effectively than the positive controls
COc1c(C)c(O)c(C)c(O)c1C(=O)/C=C/c1cccc(F)c1 [Chemical Formula 32, 1-(2′,4′-dihydroxy-6′-methoxy-3′,5′-dimethylphenyl)-3-(3-fluorophenyl)-2-propen-1-one] | – | – | – | increased the activity of AMPK similarly to or more effectively than the positive controls
COCOc1c(C)c(O)c(C(=O)/C=C/c2ccccc2F)c(OC)c1C [Chemical Formula 34, 1-(2′-hydroxy-4′-(methoxymethoxy)-6′-methoxy-3′,5′-dimethylphenyl)-3-(2-fluorophenyl)-2-propen-1-one] | – | similarly or more effectively suppressed cell migration by PDGF than AICAR and Rosi, which were used as positive controls, and DMC | – | –
COc1c(C)c(O)c(C)c(O)c1C(=O)/C=C/c1ccccc1Cl [Chemical Formula 37, 1-(2′,4′-dihydroxy-6′-methoxy-3′,5′-dimethylphenyl)-3-(2-chlorophenyl)-2-propen-1-one] | – | similarly or more effectively suppressed cell migration by PDGF than AICAR and Rosi, which were used as positive controls, and DMC | – | increased the activity of AMPK similarly to or more effectively than the positive controls
COc1c(C)c(O)c(C)c(O)c1C(=O)/C=C/c1ccccc1 [DMC, 2′,4′-dihydroxy-6′-methoxy-3′,5′-dimethylchalcone, reference compound] | – | – | – | increased the activity of AMPK
